The values below come from PubChem BioAssay AID743443 (The Scripps Research Institute Molecular Screening Center, 2014).

The source made the active and inactive calls. No rule for the calls is given here. A value given as a limit tells only on which side of the number the result lay.

Sphingosine 1-phosphate receptor 5 (Homo sapiens), sequence (Q9H228 whole entry, looked up): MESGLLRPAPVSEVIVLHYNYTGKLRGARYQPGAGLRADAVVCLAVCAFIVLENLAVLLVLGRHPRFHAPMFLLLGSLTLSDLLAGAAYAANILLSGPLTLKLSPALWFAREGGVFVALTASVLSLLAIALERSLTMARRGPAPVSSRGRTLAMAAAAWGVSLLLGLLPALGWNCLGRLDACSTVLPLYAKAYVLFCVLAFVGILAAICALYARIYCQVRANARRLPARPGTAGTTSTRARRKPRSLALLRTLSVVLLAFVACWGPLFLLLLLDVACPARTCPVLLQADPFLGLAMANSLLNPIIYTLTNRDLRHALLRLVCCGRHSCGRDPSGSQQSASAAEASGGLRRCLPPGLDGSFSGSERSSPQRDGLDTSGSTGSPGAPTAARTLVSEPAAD

This experiment addresses Sphingosine 1-phosphate receptor 5 (Homo sapiens) (UniProt Q9H228). Kind of experiment: antagonism at human S1PR5 – cell-based, FRET, dose response, selectivity assay for S1PR3 antagonist project, late-stage follow-up (AID 743443). To be noted: S1P5 FRET cell-based antagonist assay.
As for `O=C(NC(c1ccc(Cl)c(Cl)c1)c1nc(-c2ccccc2)no1)c1ccc(Cl)cc1` (stereo not given), the IC50 entry is “inactive”.
The value for `N#Cc1ccc(C(=O)NC(c2ccc(Cl)c(Cl)c2)c2nc(-c3ccccc3)no2)cc1` (stereo not given) was “inactive”; that for `O=C(NC(c1ccc(Cl)cc1)c1nc(-c2ccccc2)no1)c1cccc(Cl)c1` (stereo not given) was > 28.2 µM (inactive); that for `COc1ccc(C(=O)NC(c2ccccc2)c2nc(-c3ccccc3)no2)cc1` (stereo not given) was > 28.2 µM (inactive).
To `O=C(NC(c1cccc(Cl)c1)c1nc(-c2ccccc2)no1)c1cccc(Cl)c1` (stereo not given) belongs 5.1 µM; to `O=C(NC(c1nc(-c2ccccc2)no1)C1CCOCC1)c1ccc(Cl)c(Cl)c1` (stereo not given), > 28.2 µM (inactive); to `O=C(c1cccc(Cl)c1)N(CCO)C(c1ccc(Cl)c(Cl)c1)c1nc(-c2ccccc2)no1` (stereo not given), 9.9 µM.
`O=C(NC(c1ccc(Cl)cc1)c1nc(-c2cccc(Cl)c2)no1)c1cccc(Cl)c1` (stereo not given): the IC50 is > 28.2 µM (inactive).
The value for `O=C(NC(c1ccc(Cl)c(Cl)c1)c1nc(-c2ccccc2)no1)c1cccc(Cl)c1` (stereo not given) was “inactive”; that for `O=C(NC(c1ccccc1)c1nc(-c2ccccc2)no1)c1cccc(Br)c1` (stereo not given) was > 28.2 µM (inactive); that for `O=C(NC(c1cccc(Cl)c1)c1nc(-c2ccccc2)no1)c1cc(Cl)cc(Cl)c1` (stereo not given) was > 28.2 µM (inactive).
The value for `O=C(NC(c1ccc(Cl)c(Cl)c1)c1nc(-c2ccccc2)no1)c1ccccc1` (stereo not given) was > 28.2 µM (inactive); that for `O=C(NC(c1ccc(Br)cc1)c1nc(-c2ccccc2)no1)c1ccc(Cl)c(Cl)c1` (stereo not given) was > 28.2 µM (inactive).
To `O=C(NC(c1ccccc1)c1nc(-c2ccccc2)no1)c1cccc(Cl)n1` (stereo not given) belongs “inactive”; to `O=C(NC(c1ccc(Cl)cc1)c1nc(-c2ccccc2)no1)c1ccc(Cl)c(Cl)c1` (stereo not given), > 28.2 µM (inactive).
Turning to `O=C(NC(c1ccc(Cl)c(Cl)c1)c1nc(-c2ccccc2)no1)c1ccc(Cl)c(Cl)c1` (stereo not given), the IC50 was > 28.2 µM (inactive).
To `Cc1ccc(C(=O)NC(c2ccccc2)c2nc(-c3ccccc3)no2)cc1` (stereo not given) belongs > 28.2 µM (inactive); to `O=C(NC(c1cccc(Cl)c1)c1nc(-c2ccccc2)no1)c1ccc(Cl)c(Cl)c1` (stereo not given), > 28.2 µM (inactive).
With `O=C(NC(c1ccc(Cl)cc1)c1nc(-c2ccccc2)no1)c1cccc(Br)c1` (stereo not given), the IC50 result is “inactive”.
`O=C(NC(c1ccc(Cl)cc1)c1nc(-c2ccccn2)no1)c1cccc(Cl)c1` (stereo not given): the IC50 is > 28.2 µM (inactive).
The value for `O=C(NC(c1ccccc1)c1nc(-c2ccccc2)no1)c1ccc(Cl)cc1` (stereo not given) was > 28.2 µM (inactive); that for `O=C(NC(Cc1ccccc1)c1nc(-c2ccccc2)no1)c1cccc(Cl)c1` (stereo not given) was “inactive”.
The value for `O=C(NC(c1ccc(Cl)cc1)c1nc(-c2ccccc2)no1)c1ccc(Cl)c(Br)c1` (stereo not given) was > 28.2 µM (inactive); that for `CCc1ccc(C(NC(=O)c2cccc(Cl)c2)c2nc(-c3ccccc3)no2)cc1` (stereo not given) was > 28.2 µM (inactive).
The value for `O=C(NC(c1ccccc1)c1nc(-c2ccccc2)no1)c1cccc(Cl)c1` (stereo not given) was > 28.2 µM (inactive).
